Earlier results on one compound are cited in patent US8349312B2, “Proline substituted cyclosporin analogues” (Enanta Pharmaceuticals, Inc., priority 2009, dated 2013).

One series deals with hepatitis C virus. The following applies: Paeshuyse et al., Antiviral Research 65(3):A41 (2005).
A further series has as its target cyclophilin A (Homo sapiens, UniProt P62937).

Sequence of cyclophilin A (P62937 whole entry, species assumed): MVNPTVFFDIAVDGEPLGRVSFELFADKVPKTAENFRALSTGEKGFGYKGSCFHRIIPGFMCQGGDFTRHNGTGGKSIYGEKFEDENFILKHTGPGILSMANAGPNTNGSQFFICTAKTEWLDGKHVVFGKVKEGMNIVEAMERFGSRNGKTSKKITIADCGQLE

In the case of `C/C=C/C[C@@H](C)[C@@H](O)[C@H]1C(=O)N[C@@H](CC)C(=O)N(C)[C@H](C)C(=O)N(CC)[C@@H](C(C)C)C(=O)N[C@@H](C(C)C)C(=O)N(C)[C@@H](CC(C)C)C(=O)N[C@@H](C)C(=O)N[C@H](C)C(=O)N(C)[C@@H](CC(C)C)C(=O)N(C)[C@@H](CC(C)C)C(=O)N(C)[C@@H](C(C)C)C(=O)N1C` [DEBIO-025], the “inhibition of hepatitis C virus replication” value with hepatitis C virus is “potent and selective inhibition”. Also, the “binding affinity for cyclophilin A” value at cyclophilin A is reported as “potent binding affinity”.
